# Experimental data: patent US20020065314A1, “COMPOSITIONS AND METHOD FOR STIMULATING HAIR GROWTH” (priority 1995, published 2002)
# Entries after “also recorded” stand apart in the source; their conditions may differ.
# Experiments:
# C57BL/KsJ db/+ mice = assay: Application to full-thickness incisional and excisional wounds; type: in vivo, mouse
# Method: An incisional, full-thickness wound, about 2 cm long was made through the dorsal skin of five mice (strain C57BL/KsJ db/+). A single dose of about 10 mg of n-butyl cyanoacrylate (in 10 μl of Nexaband^R Liquid) was applied to the bottom of the wound, and the wound closed with two surgical clips. Control animals which received 10 μl of phosphate buffered saline (PBS: 0.144 g/l KH2PO4, 9.0 g/l NaCl, 0.795 g/l Na2HPO4.7H2O; pH 7.2) were processed identically. During the period of 1-90 days post application, the effect of n-butyl cyanoacrylate treatment was examined by macroscopic observation.
# In a group of five C57BL/KsJ db/+ mice, a full-thickness excisional wound was made with a biopunch (6 mm diameter) on the dorsal skin. A single dose of 9 mg of n-butyl cyanoacrylate (in 10 μl of Nexaband^R Liquid) was applied to the bottom of the wound, and the wound was left open. Control animals which received 10 μl of PBS were treated identically.
# TGF-β2,3 = assay: Immunohistochemistry of growth factors in treated skin; type: in vivo, mouse; conditions: throughout the study period
# Method: Forty stock female mice of strain C57BL/KsJ db/+ at eight weeks of age were treated with a single dose of n-butyl cyanoacrylate applied topically to the shaved dorsum. Animals were sacrificed at days 4, 6, 8, 10, 12, 14, 16, 18, 20, and 22 post-treatment, and skin samples were excised to yield an area of n-butyl cyanoacrylate treated skin together with a contiguous, adjacent sample of untreated skin. In preparation for immunohistochemistry, samples were washed in PBS, fixed in 10% formalin, and secondarily fixed in Bouin's solution prior to paraffin embedding. Multiple 4-5 μm sections were placed on slides pre-coated with 3-aminopropylethoxysilane.
# The following primary antibodies were used: anti-TGF-β1 neutralizing antibody; anti-TGF-β2,3; and anti-EGF receptor.
# [1] = test system: skin of mice (C57BL/KsJ db/+ and C57BL/KsJ db/db); assay: Hair growth in organ culture of treated skin (ex vivo); parameters: species or system mouse
# Method: The shaved dorsal skin of mice (C57BL/KsJ db/+ and C57BL/KsJ db/db) was treated with n-butyl cyanoacrylate by a single topical application at a dose of 10 mg cm^2. One hour later, the skin (0.5×1.0 cm) containing both treated and untreated areas was excised, rinsed in PBS, cultured in Dulbecco's Modified Eagle Medium (Gibco BRL, Gaithersburg, Md.) supplemented with 10% fetal bovine serum (HyClone Laboratories, Logan, Utah) at an atmosphere of […] and 5% CO2, 37° C. Hair growth was recorded by macroscopy.
# [2] = test system: C57BL/KsJ db/+ and C57BL/KsJ db/db mice; assay: Dose of n-butyl cyanoacrylate and response of hair growth (macroscopic score); type: in vivo, mouse
# Method: The effect of n-butyl cyanoacrylate concentration on stimulation of hair growth was investigated as follows. Five mice of each strains C57BL/KsJ db/+ and C57BL/KsJ db/db were shaved on the dorsum, treated with a single topical application of either undiluted Nexaband^R Liquid (containing about 10 mg of n-butyl cyanoacrylate per 10 μl), or Nexaband^R Liquid diluted to 50% or 25% with vegetable oil. Hair growth was macroscopically scored at 49, 61 and 86 days after treatment.
# NIH/3T3 fibroblasts = assay: Fibroblast cell proliferation assay with extracts of treated skin; type: cell-based
# Method: A single topical application of 20 mg of n-butyl cyanoacrylate was made to an area of shaved skin on the dorsum of strain C57BL/KsJ db/+ mice. At days 10 and 20 post-treatment, skin samples were excised from treated areas. Skin tissue was frozen in dry ice, minced, homogenized in ice-cold PBS, and centrifuged at 15,000 g for 30 minutes at 4° C. The protein concentration of supernatants was adjusted to 1.0 mg/ml by the BioRad assay procedure (BioRad Laboratories, Richmond, Calif.). Skin samples from untreated areas of the same strain were harvested and processed identically. Mouse serum albumin was prepared at a concentration of 1.0 mg/ml in PBS as a control. An aliquot of each supernatant extract was fractionated according to size with a nominal 30 kilo Dalton (kDa) cutoff, and the low molecular weight fraction (≦30 kDa) was included in the fibroblast cell proliferation assay, as follows.
# The supernatant extracts from treated and untreated skin samples, and mouse serum albumin control, were added to a quartet of wells in a 96 well plate, and 2-fold serially diluted 11 times. NIH/3T3 fibroblasts (ex American Type Culture Collection, Rockville, Md.) were harvested at about 80% confluence, seeded into each well at a density of 5,000 cells per well, and supplemented with serum-free assay medium (QBSF 56, Quality Biological Inc., Gaithersburg, Md.). Cell proliferation was determined according to the protocol of the CellTitre 96 Non-Radioactive Cell Proliferation Assay (Promega, Madison, Wis.).
# [3] = 25%, C57BL/KsJ db/+, 49 days after treatment
# [4] = 25%, C57BL/KsJ db/+, 61 days after treatment
# [5] = 25%, C57BL/KsJ db/+, 86 days after treatment
# [6] = 25%, C57BL/KsJ db/db, 49 days after treatment
# [7] = 25%, C57BL/KsJ db/db, 61 days after treatment
# [8] = 25%, C57BL/KsJ db/db, 86 days after treatment
# [9] = 50%, C57BL/KsJ db/db, 49 days after treatment
# [10] = 50%, C57BL/KsJ db/db, 61 days after treatment
# [11] = 50%, C57BL/KsJ db/db, 86 days after treatment
compound,measurement,setting,value
C=C(C#N)C(=O)OCCCC [n-butyl cyanoacrylate],microscopic examination of wound site,C57BL/KsJ db/+ mice; full thickness incisional or excisional wound,"induced de novo hair follicle formation in the subcutaneous adipose layer, in the dermis, as well as in the wound site"
same,hair growth at wound (photograph),"C57BL/KsJ db/+ mice; incision wound, day 17 post treatment",profound hair growth along the linear wound margin
same,hair growth at wound,C57BL/KsJ db/+ mice; incisional and excisional wounds,stimulated hair growth along the wound margin
same,histology of wound site,"C57BL/KsJ db/+ mice; incisional wound, day 17 post treatment",development of many new hair follicles and little scar tissue in the wound site
same,"intensity of TGF-β2,3 stain in the epidermis","TGF-β2,3",greater than that of TGF-β1
same,hair growth in organ culture (photograph),[1]; 14 days in organ culture after treatment,hair growth is apparent in the treated area
same,time to which hair growth lasted (end of the experiment),"[1]; organ culture, post treatment",≥ 25 days
same,time at which hair growth in the treated area was observed,"[1]; organ culture, single topical application 10 mg cm^2 one hour before excision, post treatment",7 to 12 days
same,"Number of Animals Exhibiting Hair Growth, Score 0",[2]; [3],4
same,"Number of Animals Exhibiting Hair Growth, Score 1+",[2]; [3],1
same,"Number of Animals Exhibiting Hair Growth, Score 0",[2]; [4],2
same,"Number of Animals Exhibiting Hair Growth, Score 1+",[2]; [4],3
same,"Number of Animals Exhibiting Hair Growth, Score 0",[2]; [5],3
same,"Number of Animals Exhibiting Hair Growth, Score 1+",[2]; [5],2
same,"Number of Animals Exhibiting Hair Growth, Score 0",[2]; [6],2
same,"Number of Animals Exhibiting Hair Growth, Score 2+",[2]; [6],2
same,"Number of Animals Exhibiting Hair Growth, Score 3+",[2]; [6],1
same,"Number of Animals Exhibiting Hair Growth, Score 0",[2]; [7],2
same,"Number of Animals Exhibiting Hair Growth, Score 1+",[2]; [7],1
same,"Number of Animals Exhibiting Hair Growth, Score 2+",[2]; [7],1
same,"Number of Animals Exhibiting Hair Growth, Score 3+",[2]; [7],1
same,"Number of Animals Exhibiting Hair Growth, Score 2+",[2]; [8],3
same,"Number of Animals Exhibiting Hair Growth, Score 3+",[2]; [8],2
same,"Number of Animals Exhibiting Hair Growth, Score 2+",[2]; [9],2
same,"Number of Animals Exhibiting Hair Growth, Score 3+",[2]; [9],3
same,"Number of Animals Exhibiting Hair Growth, Score 2+",[2]; [10],1
same,"Number of Animals Exhibiting Hair Growth, Score 3+",[2]; [10],4
same,"Number of Animals Exhibiting Hair Growth, Score 2+",[2]; [11],2
same,"Number of Animals Exhibiting Hair Growth, Score 3+",[2]; [11],3
same,"Number of Animals Exhibiting Hair Growth, Score 3+","[2]; 100% (10 mg/10 μl), C57BL/KsJ db/+, 49 days after treatment",5
same,"Number of Animals Exhibiting Hair Growth, Score 3+","[2]; 100% (10 mg/10 μl), C57BL/KsJ db/+, 61 days after treatment",5
same,"Number of Animals Exhibiting Hair Growth, Score 3+","[2]; 100% (10 mg/10 μl), C57BL/KsJ db/+, 86 days after treatment",5
same,"Number of Animals Exhibiting Hair Growth, Score 3+","[2]; 100% (10 mg/10 μl), C57BL/KsJ db/db, 49 days after treatment",5
same,"Number of Animals Exhibiting Hair Growth, Score 3+","[2]; 100% (10 mg/10 μl), C57BL/KsJ db/db, 61 days after treatment",5
same,"Number of Animals Exhibiting Hair Growth, Score 3+","[2]; 100% (10 mg/10 μl), C57BL/KsJ db/db, 86 days after treatment",5
same,dose dependence of induced hair growth,"[2]; undiluted, 50%, 25%",dose-dependent
same,activity of extract from skin harvested at 20 days post-treatment vs 10 days,NIH/3T3 fibroblasts,more active than the extract from skin harvested at 10 days post-treatment
same,activity of protein extracts of treated skin vs extract of untreated skin,"NIH/3T3 fibroblasts; skin treated topically with 20 mg, harvested days 10 and 20",more active in stimulating proliferation of NIH/3T3 cells
same,activity of low molecular weight fraction (30 KDa or less) of skin extract,NIH/3T3 fibroblasts; treated and untreated skin,no discernible effect on cell proliferation; also recorded: filtration step removes stimulation
